Laboratory results taken from publication PMC7719162, “Positioning of an unprecedented spiro[5.5]undeca ring system into kinase inhibitor space” (Scientific Reports, 2020).
Like-named read-outs stand apart in the source and are kept apart here.

How the values were obtained:
[1] = biological target: T1, PKCa (Homo sapiens, UniProt P17252); experiment: Kinase panel assay (radiolabelled); assay type: biochemical; settings: ATP 10 μM
T1 construct: purchased Reaction Biology Corp

[2] = test system: NO production in LPS-activated BV-2 cells; experiment: NO production assay (Griess) in LPS-activated BV-2 cells; assay type: cell-based, murine; settings: read-out: NO Inhibition IC50
Protocol: 3-(4,5-dimethylthiazol-2-yl)-2,5-diphenyl-tetrazolium bromide (MTT) assay was performed to evaluate the cytotoxicity of the samples to the microglia. BV2 cells at the density of 4 × 10^4 cells /well were seeded in the 96 well plate and incubated for 24 h. Seeded cells were pre-treated with different concentration of the samples, and LPS (100 ng/ml) activation was performed after 30 min of compound treatment. Treated plate were incubated for 24 h in the incubator and nitric oxide assay and cell viability assay was performed. Treated cell’s conditioned medium was used to evaluate the NO assay, and the attached cells were used to evaluate the cell viability assay. 50 µL of conditioned medium (CM) from treated cells were transferred to a new 96 well plate for NO assay. This CM was mixed with the equal volume of the mixture of Gries reagent ((1% sulfanilamide and 0.1% N-1-napthylethylenediamine dihydrochloride). NaNO2 was used as standard and the colorimetric change were evidenced by measuring its OD at 540 nm in a microplate reader. The cells in the plate were incubated for 1 h with MTT solution making it the final concentration of […]. Blue stained cells were incubated with 200 ul of DMSO and the solution get changed to purple/formazan color and it was observed by measuring the absorbance at 570 nm in a microplate reader.NG-mono-methyl-L-arginine (L-NMMA), a well-known nitric oxide synthase (NOS) inhibitor, was used as a positive control.

[3] = biological target: T2, MST3/STK24 (Homo sapiens, UniProt Q9Y6E0); experiment: Kinase panel assay (radiolabelled); assay type: biochemical; settings: ATP 10 μM
T2 construct: purchased Reaction Biology Corp

[4] = biological target: T3, PI4Kb (Homo sapiens, UniProt Q9UBF8); experiment: Kinase panel assay (lipid kinase); assay type: biochemical; settings: 30 μM compound, ATP 10 μM, duplicates Data 1/Data 2
T3 construct: purchased Reaction Biology Corp

[5] = biological target: T4, CDK3/cyclin E (Homo sapiens, UniProt Q00526); experiment: Kinase panel assay (radiolabelled); assay type: biochemical; settings: ATP 10 μM
T4 construct: purchased Reaction Biology Corp

[6] = biological target: T5, ARK5/NUAK1 (Homo sapiens, UniProt O60285); settings: cited from earlier work
T5 construct: purchased Reaction Biology Corp
T5 sequence (O60285 1-661): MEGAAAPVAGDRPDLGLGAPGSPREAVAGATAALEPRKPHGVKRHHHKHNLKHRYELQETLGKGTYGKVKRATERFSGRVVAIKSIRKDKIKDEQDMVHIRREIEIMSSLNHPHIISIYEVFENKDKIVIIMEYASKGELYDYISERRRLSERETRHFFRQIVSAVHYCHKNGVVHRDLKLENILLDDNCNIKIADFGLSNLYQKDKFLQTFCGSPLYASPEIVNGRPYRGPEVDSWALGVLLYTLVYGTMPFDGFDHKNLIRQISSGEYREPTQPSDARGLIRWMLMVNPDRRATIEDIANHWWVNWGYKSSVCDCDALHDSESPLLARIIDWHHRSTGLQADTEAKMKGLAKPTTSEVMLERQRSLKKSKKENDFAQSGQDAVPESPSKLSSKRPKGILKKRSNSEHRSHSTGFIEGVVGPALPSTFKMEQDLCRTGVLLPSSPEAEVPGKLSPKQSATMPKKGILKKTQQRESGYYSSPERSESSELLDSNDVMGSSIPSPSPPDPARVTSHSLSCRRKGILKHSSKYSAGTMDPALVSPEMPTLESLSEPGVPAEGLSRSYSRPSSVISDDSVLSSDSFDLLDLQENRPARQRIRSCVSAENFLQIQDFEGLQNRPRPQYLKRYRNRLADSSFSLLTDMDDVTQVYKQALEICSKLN

[7] = biological target: T6, TLK1 (Homo sapiens, UniProt Q9UKI8); settings: cited from earlier work
T6 construct: purchased Reaction Biology Corp
T6 sequence (Q9UKI8 1-766): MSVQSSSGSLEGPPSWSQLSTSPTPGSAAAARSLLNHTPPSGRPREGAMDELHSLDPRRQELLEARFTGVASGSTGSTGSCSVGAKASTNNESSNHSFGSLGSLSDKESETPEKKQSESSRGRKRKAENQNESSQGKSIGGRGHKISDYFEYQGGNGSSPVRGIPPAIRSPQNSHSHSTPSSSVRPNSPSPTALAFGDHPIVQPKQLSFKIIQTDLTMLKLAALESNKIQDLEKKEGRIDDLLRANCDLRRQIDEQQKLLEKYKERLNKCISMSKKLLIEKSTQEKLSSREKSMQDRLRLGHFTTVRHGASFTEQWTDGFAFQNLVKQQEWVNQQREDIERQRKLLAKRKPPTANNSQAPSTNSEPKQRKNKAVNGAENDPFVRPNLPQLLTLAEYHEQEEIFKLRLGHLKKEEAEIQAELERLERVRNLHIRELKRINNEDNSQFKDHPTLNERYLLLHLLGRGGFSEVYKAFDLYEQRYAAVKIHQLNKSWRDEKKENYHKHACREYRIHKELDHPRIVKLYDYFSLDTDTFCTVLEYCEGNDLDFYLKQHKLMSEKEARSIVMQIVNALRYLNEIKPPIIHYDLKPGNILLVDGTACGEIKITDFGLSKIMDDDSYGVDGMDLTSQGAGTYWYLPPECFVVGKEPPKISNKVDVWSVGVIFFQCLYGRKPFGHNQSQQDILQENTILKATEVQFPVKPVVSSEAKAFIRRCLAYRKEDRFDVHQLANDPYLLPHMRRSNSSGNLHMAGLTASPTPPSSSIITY

[8] = 30 μM compound, duplicates Data 1/Data 2
[9] = 30 μM compound, duplicates Data 1/Data 2, read-out: % Enzyme Activity (relative to DMSO controls)
[10] = 30 μM, average ± SD, read-out: % Residual Activity at 30 μM

T2 sequence (Q9Y6E0 whole entry): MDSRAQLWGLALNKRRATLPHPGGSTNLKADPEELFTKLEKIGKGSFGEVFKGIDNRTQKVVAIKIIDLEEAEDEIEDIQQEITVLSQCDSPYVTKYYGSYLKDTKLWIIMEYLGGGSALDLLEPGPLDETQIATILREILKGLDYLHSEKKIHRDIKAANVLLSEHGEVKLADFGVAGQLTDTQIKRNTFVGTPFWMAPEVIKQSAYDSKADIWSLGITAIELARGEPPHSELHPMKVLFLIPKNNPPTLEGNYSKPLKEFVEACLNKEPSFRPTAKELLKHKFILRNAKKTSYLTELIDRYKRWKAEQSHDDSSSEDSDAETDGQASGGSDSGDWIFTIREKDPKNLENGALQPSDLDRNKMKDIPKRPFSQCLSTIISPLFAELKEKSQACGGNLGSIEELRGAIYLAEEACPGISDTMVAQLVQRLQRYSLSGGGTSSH
T4 sequence (Q00526 whole entry): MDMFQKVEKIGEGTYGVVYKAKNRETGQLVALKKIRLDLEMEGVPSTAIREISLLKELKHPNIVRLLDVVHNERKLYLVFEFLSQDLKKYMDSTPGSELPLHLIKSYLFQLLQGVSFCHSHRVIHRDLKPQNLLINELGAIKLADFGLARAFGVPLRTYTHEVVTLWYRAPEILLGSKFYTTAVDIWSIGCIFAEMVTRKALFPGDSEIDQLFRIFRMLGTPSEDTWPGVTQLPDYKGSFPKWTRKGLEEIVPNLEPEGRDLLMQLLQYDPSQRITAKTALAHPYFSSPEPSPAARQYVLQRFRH
T4 sequence (P24864 whole entry partner): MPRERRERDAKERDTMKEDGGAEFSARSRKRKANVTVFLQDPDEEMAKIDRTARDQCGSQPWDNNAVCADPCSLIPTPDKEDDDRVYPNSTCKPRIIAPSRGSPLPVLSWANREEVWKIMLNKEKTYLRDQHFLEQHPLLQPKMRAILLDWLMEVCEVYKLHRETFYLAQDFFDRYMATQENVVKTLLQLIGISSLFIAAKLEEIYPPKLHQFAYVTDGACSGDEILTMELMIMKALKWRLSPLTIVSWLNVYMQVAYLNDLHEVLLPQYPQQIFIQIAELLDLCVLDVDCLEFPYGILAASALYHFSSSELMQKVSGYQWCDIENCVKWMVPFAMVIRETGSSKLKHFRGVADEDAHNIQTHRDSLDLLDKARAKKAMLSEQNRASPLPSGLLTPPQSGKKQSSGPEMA
T3 sequence (Q9UBF8 whole entry): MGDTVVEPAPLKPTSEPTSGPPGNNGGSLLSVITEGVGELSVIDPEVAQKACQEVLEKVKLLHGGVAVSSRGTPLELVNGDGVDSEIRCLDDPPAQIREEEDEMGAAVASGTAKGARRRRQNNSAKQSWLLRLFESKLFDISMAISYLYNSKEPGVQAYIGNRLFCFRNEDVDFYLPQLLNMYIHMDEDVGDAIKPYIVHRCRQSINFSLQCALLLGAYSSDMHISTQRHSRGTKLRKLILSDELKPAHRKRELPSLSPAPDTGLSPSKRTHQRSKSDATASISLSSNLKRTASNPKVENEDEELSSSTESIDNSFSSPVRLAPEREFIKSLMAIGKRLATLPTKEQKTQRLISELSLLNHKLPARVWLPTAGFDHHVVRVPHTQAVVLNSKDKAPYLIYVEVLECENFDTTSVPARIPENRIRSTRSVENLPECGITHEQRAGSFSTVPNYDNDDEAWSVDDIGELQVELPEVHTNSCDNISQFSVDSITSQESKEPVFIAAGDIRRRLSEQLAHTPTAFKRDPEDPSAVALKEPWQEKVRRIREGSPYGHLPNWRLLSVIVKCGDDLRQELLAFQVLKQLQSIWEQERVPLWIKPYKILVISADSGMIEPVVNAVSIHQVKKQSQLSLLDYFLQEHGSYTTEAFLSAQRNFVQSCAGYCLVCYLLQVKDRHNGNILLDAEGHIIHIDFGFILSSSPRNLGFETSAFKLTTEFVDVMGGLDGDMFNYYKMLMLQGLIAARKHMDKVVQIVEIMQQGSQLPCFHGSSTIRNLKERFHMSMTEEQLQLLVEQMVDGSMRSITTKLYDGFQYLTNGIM

Compound	% Enzyme Activity (relative to DMSO controls) [1, 8]	remaining activity at 30 µM [1, 9]	remaining activity at 30 µM [1, 10]	IC50 ([2]; Mus musculus)	% Enzyme Activity (relative to DMSO controls) [3, 8]	remaining activity at 30 µM [3, 9]	remaining activity at 30 µM [3, 10]	% Enzyme Activity (relative to DMSO controls) [4]	remaining activity at 30 µM ([4]; read-out: % Enzyme Activity (relative to DMSO controls))	% Enzyme Activity (relative to DMSO controls) [5, 8]	remaining activity at 30 µM [5, 9]	remaining activity at 30 µM [5, 10]	IC50 [2]	% Residual Activity at 30 μM [6]	% Residual Activity at 30 μM [7]
O=C1C=CC2(C=C1)OCC(Cc1cn(-c3cccc(Cl)c3)nn1)C(=O)N2c1ccccc1 (stereo not drawn) [2d, 3-((1-(3-Chlorophenyl)-1H-1,2,3-triazol-4-yl)methyl)-5-phenyl-1-oxa-5-azaspiro[5.5]undeca-7,10-diene-4,9-dione]	62.24%	63%	62.6 ± 0.5%	660 nM	89.43%	94.2%	91.8 ± 3.4%	81.00%	81.6%	59.02%	61.6%	60.3 ± 1.9%	–	–	–
O=C1C=CC2(C=C1)OCC(Cc1cc(C(F)(F)F)cc(C(F)(F)F)c1)C(=O)N2c1ccccc1 (racemic) [1c]	–	–	–	–	–	–	–	–	–	–	–	–	70 ± 10 nM	70.8 ± 0.1%	58.0 ± 0.9%
